A short description of this series: storage stability of liraglutide obtained by the present process. It is filed as physicochemical. Conditions: liraglutide of purity greater or equal to 99.5% obtained as per the present process.

Liraglutide: the “stable to handle and store without any significant or measurable change in its morphology and physicochemical characteristics” value was “more than 6 months”.

The record behind these values is patent publication US20250236655A1, “PROCESS FOR THE PREPARATION OF LIRAGLUTIDE” (SHILPA PHARMA LIFESCIENCES LIMITED, priority 2024, published 2025).
